Measurements: ChEMBL document CHEMBL1201862, “PubChem BioAssay data set” (2004)
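Cultured in 96-well plates, cells were exposed to test compound for 48 hours across five concentrations. Here, GI50 denotes the concentration required for 50% inhibition of growth.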 Calls of active or inactive are those of the source. Cut-off read from the data, not from the text of the source: active = GI50 up to about 1.1 µM and inactive = higher.

Tests used:
Assay in all cases: NCI tumour cell line growth inhibition, 48 h
[1] = test system: CAKI-1
[2] = test system: UACC-257
[3] = test system: IGROV-1
[4] = test system: SF-295
[5] = test system: SR
[6] = test system: SW-620
[7] = test system: DU-145
[8] = test system: 786-0
[9] = test system: SK-MEL-5
[10] = test system: A549
[11] = test system: TK-10
[12] = test system: T47D
[13] = test system: CCRF-CEM
[14] = test system: EKVX
[15] = test system: M14
[16] = test system: PC-3
[17] = test system: SN12C
[18] = test system: KM12
[19] = test system: HL-60
[20] = test system: SK-OV-3
[21] = test system: MOLT-4
[22] = test system: Malme-3M
[23] = test system: NCI-H23
[24] = test system: MDA-MB-231
[25] = test system: HCC 2998
[26] = test system: MDA-N
[27] = test system: K562
[28] = test system: SNB-75
[29] = test system: MCF7
[30] = test system: HOP-62
[31] = test system: RXF 393
[32] = test system: SF-268
[33] = test system: SK-MEL-28
[34] = test system: HT-29
[35] = test system: HCT-15
[36] = test system: RPMI-8226
[37] = test system: UACC-62
[38] = test system: COLO 205
[39] = test system: OVCAR-8
[40] = test system: NCI-H460
[41] = test system: OVCAR-3
[42] = test system: OVCAR-4
[43] = test system: NCI-H226
[44] = test system: NCI/ADR-RES
[45] = test system: BT-549
[46] = test system: SNB-19
[47] = test system: SF-539
[48] = test system: OVCAR-5
[49] = test system: ACHN
[50] = test system: MDA-MB-435
[51] = test system: NCI-H522
[52] = test system: Hs-578T
[53] = test system: HCT-116
[54] = test system: UO-31
[55] = test system: HOP-92
[56] = test system: A498
[57] = test system: SK-MEL-2
[58] = test system: U-251
[59] = test system: LOX IMVI

`C1=C(c2ccccc2)O[C@H](COCc2ccccc2)C(OCc2ccccc2)[C@@H]1OCc1ccccc1` (stereo partly drawn) was tested, and the GI50 [1] was > 10 µM (inactive), the GI50 [2] was > 10 µM (inactive) and the GI50 [3] was > 10 µM (inactive). The GI50 [4] was > 10 µM (inactive), the GI50 [5] was > 10 µM (inactive) and the GI50 [6] was > 10 µM (inactive). The GI50 [7] was > 10 µM (inactive), the GI50 [8] was > 10 µM (inactive) and the GI50 [9] was > 10 µM (inactive). The GI50 [10] was > 10 µM (inactive), the GI50 [11] was > 10 µM (inactive) and the GI50 [12] was > 10 µM (inactive). For the same molecule, the GI50 [13] was > 10 µM (inactive), the GI50 [14] was > 10 µM (inactive) and the GI50 [15] was > 10 µM (inactive). For the same molecule, the GI50 [16] was > 10 µM (inactive), the GI50 [17] was > 10 µM (inactive) and the GI50 [18] was > 10 µM (inactive). For the same molecule, the GI50 [19] was > 10 µM (inactive), the GI50 [20] was > 10 µM (inactive) and the GI50 [21] was > 10 µM (inactive). For the same molecule, the GI50 [22] was > 10 µM (inactive), the GI50 [23] was > 10 µM (inactive) and the GI50 [24] was > 10 µM (inactive). For the same molecule, the GI50 [25] was > 10 µM (inactive), the GI50 [26] was > 10 µM (inactive) and the GI50 [27] was > 10 µM (inactive). The GI50 [28] was > 10 µM (inactive), the GI50 [29] was > 10 µM (inactive) and the GI50 [30] was > 10 µM (inactive). The GI50 [31] was > 10 µM (inactive), the GI50 [32] was > 10 µM (inactive) and the GI50 [33] was > 10 µM (inactive). The GI50 [34] was > 10 µM (inactive), the GI50 [35] was over 10 µM and the GI50 [36] was > 10 µM (inactive). The GI50 [37] was > 10 µM (inactive), the GI50 [38] was > 10 µM (inactive) and the GI50 [39] was > 10 µM (inactive).

`O=C1CCc2c3c(c4c([nH]c5ccccc54)c2CC1)C(=O)NC3=O` was tested, and the GI50 [1] was 2.02 µM (inactive), the GI50 [40] was 1.58 µM (inactive) and the GI50 [2] was 5.05 µM (inactive). The GI50 [41] was 3.51 µM (inactive), the GI50 [3] was 0.893 µM (active) and the GI50 [42] was 2.08 µM (inactive). For the same molecule, the GI50 [43] was 3.32 µM (inactive), the GI50 [44] was 16.4 µM (inactive) and the GI50 [4] was 6.01 µM (inactive). The GI50 [6] was 0.815 µM (active), the GI50 [7] was 9.98 µM (inactive) and the GI50 [45] was 7.46 µM (inactive). For the same molecule, the GI50 [46] was 3.94 µM (inactive), the GI50 [47] was 5.36 µM (inactive) and the GI50 [48] was 34.1 µM (inactive). The GI50 [49] was 1.01 µM (active), the GI50 [50] was 1.31 µM (inactive) and the GI50 [8] was 11.7 µM (inactive). The GI50 [9] was 1.91 µM (inactive), the GI50 [10] was 7.05 µM (inactive) and the GI50 [11] was 10.2 µM (inactive). For the same molecule, the GI50 [12] was 1.46 µM (inactive), the GI50 [13] was 2 µM (inactive) and the GI50 [14] was 11.1 µM (inactive). The GI50 [15] was 5.05 µM (inactive), the GI50 [16] was 2.05 µM (inactive) and the GI50 [17] was 4.32 µM (inactive). For the same molecule, the GI50 [18] was 0.0942 µM (active), the GI50 [19] was 0.671 µM (active) and the GI50 [51] was 0.766 µM (active). For the same molecule, the GI50 [21] was 0.774 µM (active), the GI50 [52] was 2.08 µM (inactive) and the GI50 [22] was 3.48 µM (inactive). For the same molecule, the GI50 [23] was 8.93 µM (inactive), the GI50 [24] was 25.3 µM (inactive) and the GI50 [25] was 27.9 µM (inactive). The GI50 [53] was 2.05 µM (inactive), the GI50 [54] was 0.998 µM (active) and the GI50 [55] was 18.6 µM (inactive). For the same molecule, the GI50 [27] was 1.19 µM (inactive), the GI50 [28] was 0.0265 µM (active) and the GI50 [29] was 2.97 µM (inactive). For the same molecule, the GI50 [30] was 12.3 µM (inactive), the GI50 [31] was 1.91 µM (inactive) and the GI50 [32] was 7.85 µM (inactive). The GI50 [56] was 2.22 µM (inactive), the GI50 [57] was 2.7 µM (inactive) and the GI50 [58] was 4.55 µM (inactive). The GI50 [33] was 3.14 µM (inactive), the GI50 [34] was 3.53 µM (inactive) and the GI50 [35] was 2.7 µM. The GI50 [36] was 3.38 µM (inactive), the GI50 [37] was 4.45 µM (inactive) and the GI50 [38] was 0.63 µM (active). The GI50 [59] was 1.18 µM (inactive) and the GI50 [39] was 6.87 µM (inactive).

`Nc1nc(Cl)c2ncn(Cc3cccc(CCl)c3)c2n1` was tested, and the GI50 [1] was 1.23 µM (inactive), the GI50 [40] was 3.87 µM (inactive) and the GI50 [2] was 6.01 µM (inactive). The GI50 [41] was 1.33 µM (inactive), the GI50 [3] was 3.31 µM (inactive) and the GI50 [42] was 2.13 µM (inactive). The GI50 [43] was 6.28 µM (inactive), the GI50 [44] was 3.47 µM (inactive) and the GI50 [4] was 7.01 µM (inactive). For the same molecule, the GI50 [5] was 1.74 µM (inactive), the GI50 [6] was 3.61 µM (inactive) and the GI50 [7] was 6.03 µM (inactive). The GI50 [45] was 4.09 µM (inactive), the GI50 [46] was 5.89 µM (inactive) and the GI50 [47] was 5.24 µM (inactive). The GI50 [48] was 9.16 µM (inactive), the GI50 [49] was 3.45 µM (inactive) and the GI50 [50] was 6.73 µM (inactive). The GI50 [8] was 5.37 µM (inactive), the GI50 [9] was 5.7 µM (inactive) and the GI50 [10] was 13.2 µM (inactive). The GI50 [11] was 6.31 µM (inactive), the GI50 [12] was 7.36 µM (inactive) and the GI50 [13] was 3.18 µM (inactive). For the same molecule, the GI50 [14] was 8.97 µM (inactive), the GI50 [15] was 3.66 µM (inactive) and the GI50 [16] was 10.2 µM (inactive). For the same molecule, the GI50 [17] was 8.05 µM (inactive), the GI50 [18] was 4.53 µM (inactive) and the GI50 [19] was 3.95 µM (inactive). The GI50 [20] was 20 µM (inactive), the GI50 [51] was 2.4 µM (inactive) and the GI50 [21] was 3.6 µM (inactive). For the same molecule, the GI50 [52] was 7.03 µM (inactive), the GI50 [22] was 5.81 µM (inactive) and the GI50 [23] was 1.87 µM (inactive). For the same molecule, the GI50 [24] was 11 µM (inactive), the GI50 [25] was 3.03 µM (inactive) and the GI50 [53] was 2 µM (inactive). For the same molecule, the GI50 [54] was 13.4 µM (inactive), the GI50 [55] was 1.64 µM (inactive) and the GI50 [27] was 4.38 µM (inactive). For the same molecule, the GI50 [28] was 9.75 µM (inactive), the GI50 [29] was 5.35 µM (inactive) and the GI50 [30] was 2.84 µM (inactive). For the same molecule, the GI50 [31] was 2.61 µM (inactive), the GI50 [32] was 5.09 µM (inactive) and the GI50 [56] was 25 µM (inactive). For the same molecule, the GI50 [57] was 12.1 µM (inactive), the GI50 [58] was 2.17 µM (inactive) and the GI50 [33] was 5.28 µM (inactive). The GI50 [34] was 3.87 µM (inactive), the GI50 [35] was 2.12 µM and the GI50 [36] was 2.57 µM (inactive). The GI50 [37] was 4.16 µM (inactive), the GI50 [38] was 8.38 µM (inactive) and the GI50 [59] was 3.33 µM (inactive). For the same molecule, the GI50 [39] was 3.24 µM (inactive).
